PubChem BioAssay (NCI)
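Values below derive from 48-hour exposures of cells grown in 96-well plates, with endpoints linearly interpolated between the two concentrations bracketing the appropriate inhibition level. At the GI50, growth is halved. TGI is the concentration that stops growth completely.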

Key:
Experiment in all cases: inhibition of tumour cell growth, NCI panel, 48 h
A549 NSCLC = system: A549 NSCLC
DU-145 prostate = system: DU-145 prostate
HS 578T breast = system: HS 578T breast
HT29 colon = system: HT29 colon
MCF7 breast = system: MCF7 breast
NCI-H23 lung = system: NCI-H23 lung
NCI-H460 lung = system: NCI-H460 lung
OVCAR-4 ovarian = system: OVCAR-4 ovarian
OVCAR-8 ovarian = system: OVCAR-8 ovarian
SR leukemia = system: SR leukemia

| Compound | GI50 (A549 NSCLC) | TGI (A549 NSCLC) | GI50 (DU-145 prostate) | TGI (DU-145 prostate) | GI50 (HS 578T breast) | TGI (HS 578T breast) | GI50 (HT29 colon) | TGI (HT29 colon) | GI50 (MCF7 breast) | TGI (MCF7 breast) | GI50 (NCI-H23 lung) | TGI (NCI-H23 lung) | GI50 (NCI-H460 lung) | TGI (NCI-H460 lung) | GI50 (OVCAR-4 ovarian) | TGI (OVCAR-4 ovarian) | GI50 (OVCAR-8 ovarian) | TGI (OVCAR-8 ovarian) | TGI (SR leukemia) | GI50 (SR leukemia) |
| --- | --- | --- | --- | --- | --- | --- | --- | --- | --- | --- | --- | --- | --- | --- | --- | --- | --- | --- | --- | --- |
| CN(C)CCNC(=O)c1ccc(Nc2nc3ccccc3c3occc23)cc1 | 4.08 µM | 16.1 µM | 6.94 µM | 20.7 µM | 18.6 µM | 42.1 µM | 6.31 µM | > 100 µM | 49.3 µM | > 100 µM | 8.36 µM | 21.3 µM | 28.5 µM | > 100 µM | 26.7 µM | > 100 µM | 2.08 µM | 7.96 µM | – | – |
| CN/N=C(/Cc1occc(=O)c1O)C(=O)Nc1ccc(C)c(C)c1 | – | > 100 µM | – | – | – | – | – | > 100 µM | – | – | – | > 100 µM | – | > 100 µM | – | > 100 µM | – | > 100 µM | > 100 µM | – |
| CC(=O)Nc1ccc(/C=C(\NC(=O)c2ccccc2)c2nc3ccc4c(c3[nH]2)C(=O)c2ccccc2C4=O)cc1 | – | 96.3 µM | – | – | – | – | – | > 100 µM | – | – | – | > 100 µM | – | – | – | > 100 µM | – | > 100 µM | – | – |
| COc1cccc(N2C(=O)c3c(c4[nH]c5ccccc5c4c4ccc(C(C)(C)C)cc34)C2=O)c1 | – | > 100 µM | – | – | – | – | – | – | – | – | – | > 100 µM | – | > 100 µM | – | > 100 µM | – | > 100 µM | > 100 µM | – |
| COc1nc2c(OC)cccc2c(OC)c1C=O | – | > 100 µM | – | – | – | – | – | > 100 µM | – | – | – | > 100 µM | – | > 100 µM | – | – | – | > 100 µM | – | – |
| C/C(=N\NC(=S)N1CCCCCC1)c1nccnc1C | – | 30.6 µM | – | – | – | – | – | > 100 µM | – | – | – | – | – | – | – | > 100 µM | – | > 100 µM | – | – |
| COc1ccc(-c2ccc(C3CC(c4ccc(O)cc4)=NN3)o2)c([N+](=O)[O-])c1 (configuration not stated) | 25.7 µM | 84 µM | 29.4 µM | > 100 µM | 34.7 µM | > 100 µM | 40.1 µM | 97.6 µM | 24.4 µM | 74.4 µM | 42.5 µM | > 100 µM | 21.1 µM | 81.8 µM | 50.2 µM | 96.6 µM | 42.8 µM | > 100 µM | – | – |
| Cn1ncc(=S)[nH]c1=S | – | > 100 µM | – | – | – | – | – | – | – | – | – | > 100 µM | – | > 100 µM | – | > 100 µM | – | > 100 µM | – | – |
| O=C(Nc1ccc(Cl)c(C(F)(F)F)c1)C(=O)C(C(=O)/C=C/c1ccccc1)C1OC(=O)c2ccccc21 (configuration not stated) | – | > 100 µM | – | – | – | – | – | > 100 µM | – | – | – | > 100 µM | – | > 100 µM | – | > 100 µM | – | > 100 µM | > 100 µM | – |
| CC(=O)N1CCC2(C=Nc3ccccc32)CC1 | – | > 100 µM | – | – | – | – | – | > 100 µM | – | – | – | > 100 µM | – | > 100 µM | – | > 100 µM | – | > 100 µM | – | – |
| Cn1ccnc1C(=O)/C=C/c1ccc(CC(=O)Nc2ccc(Cl)cc2)cc1 | 11.5 µM | > 25 µM | 1.42 µM | > 25 µM | 15.7 µM | > 25 µM | 0.889 µM | > 25 µM | 0.891 µM | > 25 µM | 2.04 µM | > 25 µM | 1.58 µM | > 25 µM | 2.18 µM | > 25 µM | 3.49 µM | > 25 µM | – | – |
| O=C(O)c1ccc(S(=O)(=O)c2ccccc2)c([N+](=O)[O-])c1 | – | > 100 µM | – | – | – | – | – | > 100 µM | – | – | – | > 100 µM | – | > 100 µM | – | > 100 µM | – | – | > 100 µM | – |
| S=CN1CCCCC1 | – | > 100 µM | – | > 100 µM | – | > 100 µM | – | > 100 µM | – | > 100 µM | – | > 100 µM | – | > 100 µM | – | – | – | > 100 µM | > 100 µM | – |
| COC(=O)C1(C)C=C(Nc2ccccc2)C(=O)N1c1ccccc1 (configuration not stated) | – | > 100 µM | – | – | – | – | – | > 100 µM | – | – | – | > 100 µM | – | > 100 µM | – | > 100 µM | – | > 100 µM | – | – |
| Cc1cc2c(cc1C)NC(=O)C(NC(=O)/C=C/c1ccccc1)C=N2 (configuration not stated) | – | > 100 µM | – | – | – | – | – | – | – | – | – | – | – | > 100 µM | – | > 100 µM | – | > 100 µM | 58 µM | – |
| CC(=O)N(C)OC(=O)CC(=O)c1ccccc1 | – | > 100 µM | – | – | – | – | – | > 100 µM | – | – | – | > 100 µM | – | > 100 µM | – | > 100 µM | – | > 100 µM | > 100 µM | – |
| CN(N=O)C(=O)Nc1c[nH]c(=O)[nH]c1=O | – | > 100 µM | – | > 100 µM | – | – | – | > 100 µM | – | > 100 µM | – | > 100 µM | – | – | – | > 100 µM | – | > 100 µM | – | – |
| COc1ccc(OCC(=O)O)c2c1CCC(C(C)C)C2=O (configuration not stated) | – | > 100 µM | – | – | – | – | – | > 100 µM | – | – | – | > 100 µM | – | > 100 µM | – | > 100 µM | – | > 100 µM | – | – |
| Cn1c(C(N)=O)cc2c1-c1nc(Nc3ccccc3)ncc1CCC2 | 3.67 µM | 22 µM | 6.18 µM | 62.7 µM | 1.97 µM | 6.9 µM | 10.6 µM | 34.7 µM | 4.41 µM | > 100 µM | 4.91 µM | 32.9 µM | 4.2 µM | > 100 µM | – | – | 7.06 µM | 69.3 µM | 33.1 µM | 4.47 µM |
| CCOC(=N)CC(=O)Nc1ccc(Cl)cc1 | – | > 100 µM | – | – | – | – | – | > 100 µM | – | – | – | > 100 µM | – | > 100 µM | – | > 100 µM | – | > 100 µM | > 100 µM | – |
| CCCCCCCCCCCCCS(=O)(=O)O | – | > 100 µM | – | – | – | – | – | > 100 µM | – | – | – | > 100 µM | – | > 100 µM | – | > 100 µM | – | > 100 µM | – | – |
| Oc1ccc2ccccc2c1C=NCCCN=Cc1c(O)ccc2ccccc12 | 32.1 µM | > 100 µM | 35.3 µM | > 100 µM | 8.05 µM | 36.7 µM | 19.7 µM | 63.3 µM | 17.1 µM | > 100 µM | 3.13 µM | 13 µM | 9.35 µM | > 100 µM | 35.9 µM | > 100 µM | 32.4 µM | > 100 µM | – | – |
| O=C(Nc1ccc(S(=O)(=O)Nc2nccs2)cc1)c1cccnc1Nc1cccc(Cl)c1 | 15.3 µM | 39.8 µM | 15.2 µM | 30.6 µM | 19.5 µM | 67.5 µM | 16.7 µM | 30.3 µM | 12.2 µM | 32.5 µM | 12.9 µM | 28.5 µM | 16 µM | 32.6 µM | 16.3 µM | 69.3 µM | 18 µM | 48.4 µM | – | – |
